The record followed here is patent US10208028B1, “Methods of treating cancer” (Macau University of Science and Technology, priority 2017, dated 2019).

For one assay, the system named is PARP1. Kind of assay: Western blot analysis, cleaved PARP1. The format is cell-based. To be noted: H358 cells, 9 μM, 24 hr. On the procedure:
(§1) The cell culture dish was placed in the ice and washed the cells with PBS. Then the PBS was removed to ensure that the cells were lysed in cell lysis buffer containing protease and phosphatase inhibitors. Adherent cells were scraped off from the plate and transferred the lysate into a new tube. The tube was maintained at a constant agitation for 15 min in the ice. Then the tubes were centrifuged at 4° C. 12000 g for 5 min. The supernatant was transferred into a new tube and 4× loading buffer was added to the supernatant. Each sample was boiled at 100° C. for 5 min. Equal amounts of protein (50 μg) were loaded into the wells of a SDS-PAGE gel, along with 3 μl markers. The gel was placed in transfer buffer in sandwich and was transferred to a nitrocellulose filter membrane. After transferring for 3 hr in an ice bucket at a constant current of 300 mA, the membranes were blocked in 5% non-fat milk in TBST at room temperature for 1 hr. The membrane was incubated overnight with the primary antibody solution, against the target protein at 4° C. The blot was rinsed 3 times within 5 min with TBST. The secondary antibody solution was incubated for 1 hr at room temperature. […]
(§2) To determine whether the induction of apoptosis in NSCLC cells was contributed by compound C620-0696-mediated growth inhibition, cleaved PARP1 in compound C620-0696 treated H358 cells was detected. […]
A general note: In western blotting, separated proteins are transferred to a membrane and probed.

Another assay concerns c-MYC. The assay is described as follows: Western blot analysis, c-MYC. In kind it is cell-based. To be noted: H358 cells, 3, 6, 9 μM, 24 hr. As for the experimental part:
as §1, §2

The subject of assay [1] is A549 cells. The assay is described as follows: Wound healing assay. The format is cell-based. To be noted: 24 and 48 hours postinjury, versus control cells. As for the experimental part:
A549 cells were seeded onto 6 well plates. When the cell confluence reached about >90% and scratch wounds were made by scraping the cell layer across each plate using the tip of 200 μl pipette. Wounded cultures were incubated in medium for 48 hr, and then visualized by Olympus inverted microscopy to assess cell migration ability.
To evaluate the effect of C620-0696 on cell migration and cellular processes in NSCLC, the wound healing assay was employed to assess the directional cell motility in A549 cells.

The target of another assay is bromodomain of BPTF (Homo sapiens, UniProt Q12830). Kind of assay: Kinetic binding analysis by biolayer interferometry. As for the experimental part: The Octet Red96 system (Forte Bio, Pall) was used to determine the binding between compound C620-0696 and BPTF. BPTF protein was loaded to saturation onto anti-His capture sensors (ForteBio), then was placed for 2 min in wells containing C620-0696 (concentrations: 3.125, 6.25, 12.5, 25, 50, 100, 200 μM). The baseline and dissociation steps were carried out in the kinetics buffer as per the instrument manufacturer's recommendations. Kinetic binding data in all cases were adequately described accurately by a 1:1 binding model.
FIG. 2A is a graph 200 showing the binding affinity of the bromodomain of BPTF with compound C620-0696 by Biolayer interferometry assay (BLI). BLI is a label-free technology for measuring biomolecular interactions. The bromodomain was immobilized on the streptavidin (SA) biosensors, and then mixed with different concentration of compound C620-0696 at 3.125, 6.25, 12.5, 25, 50, 100, 200 μM.
On the technique in general: Biolayer interferometry detects binding as a change in optical thickness at a sensor tip.

The next assay relates to Cyclin D1. The assay is described as follows: Western blot analysis, cyclin D1. The format is cell-based. To be noted: H358 cells, 3, 6, 9 μM, 24 hr. As for the experimental part: as §1, §2
Assay [2] has as its system A549 cells. The assay is described as follows: Colony formation assay. In kind it is cell-based. To be noted: A549 cells, 0.5, 1, 1.5 μM, 7 days, versus control group. As for the experimental part: Cell survival was assessed by colony formation as previously described. A549 cells were seeded to six-well plate (500-1000/well). Then cells were exposed to various doses of compound C620-0696. After 7 days, colonies were fixed with 4% paraformaldehyde for 15 minutes and stained with crystal violet for 10-15 minutes. Finally, the staining solution was slowly washed off with water and the cells were air dried.
To determine the effect of the compound C620-0696 on A549 cell growth behavior, a colony formation assay was performed. A549 cells were treated by different concentrations of compound C620-0696, i.e. 0 (control group), 0.5, 1, 1.5 μM.

The test system of assay [3] is A549 cells. Kind of assay: MTT assay cell viability. The format is cell-based. To be noted: Homo sapiens, 72 hr treatment. As for the experimental part:
(§3) A549 and H358 cell lines were stored in liquid nitrogen. A549 and H358 cells were cultured by RPMI 1640 medium after recovery. RPMI 1640 medium supplemented with 10% fetal bovine serum and 100 units/mL penicillin and 100 μg/mL streptomycin. A549 and H358 cells were grown at 37° C. incubator with 5% CO2.
(§4) All compounds were dissolved in dimethyl sulfoxide (DMSO) and stored at −40° C. HCC78 cells were plated in 96-well micro-plate and plated 3000 cells/well. Then the 96-well micro-plate was put back in the incubator and overnight for cell adhesion. After cell adhesion, the medium was removed and each well was added with 100 μl drug-containing medium. There were three different concentrations for each drug and three duplicate wells for each concentration. Then cell adhesion was cultured overnight for 72 hr. After 72 hr, each well was added with 10 μl of MTT solution and the 96-well plate was put back in the incubator for 4 hr. Then 100 μl of the SDS solution (10% SDS and 0.1 mM HCL) was added to each well and incubated at 37° C. for 4 hr. Finally the absorbance of the plate was measured by an absorbance reader (Tecan, Morrisvill, N.C., USA).
(§5) FIG. 3B is a graph 302 showing the effect of compound C620-0696 on the cell viability of A549 cells. A549 cells were treated by different concentrations of compound C620-0696, i.e. 3, 6, 9 and 12 μM for 72 hr. […]
For orientation: Tetrazolium assays rely on reduction of a dye to a coloured formazan, in cell work by metabolically active cells.

In a further assay the test system is H358 cells. The assay is described as follows: MTT assay cell viability. In kind it is cell-based. To be noted: Homo sapiens, NCI-H358, 72 hr treatment. As for the experimental part:
as §3, §4, §5

The term Kd denotes the equilibrium constant for the complex coming apart. By IC50 is commonly meant the point on the concentration scale where inhibition reaches its midpoint. Read a high IC50 as weaker potency. Take `CN(C)CCCNc1cc(NCc2ccco2)c2noc3c2c1C(=O)c1ccccc1-3` [compound C620-0696]: the “levels of cleaved PARP1” value with PARP1 is reported as “significantly increased”. The “expression of c-MYC” value with c-MYC is reported as “suppressed the expression”. The “cell migration (wound healing)” value in the assay on A549 cells [1] was “migrated more slowly”. The Koff at bromodomain of BPTF (1:1 binding model) was 1.70×10^−2 S^−1. Further, the dissociation constant (Kd) at bromodomain of BPTF (3.125-200 μM, steady-state analysis, read-out: binding affinity KD) amounted to 35.5 µM. In the assay with Cyclin D1, the “expression of cyclin D1” value was “reduced the expression of cyclin D1”. In addition, the colony formation result in the assay on A549 cells [2] is “significant loss of colony formation”. Moreover, the IC50 with A549 cells [3] was 11.2 µM; in the assay with H358 cells it was 6.72 µM.
